# Values of other authors, collected in patent publication US20220265566A1, “ATOVAQUONE NANOPARTICULATE COMPOSITIONS” (Tulex Pharmaceuticals Inc., priority 2018, published 2022).
compound,measurement,value
"O=C1C(O)=C([C@H]2CC[C@H](c3ccc(Cl)cc3)CC2)C(=O)c2ccccc21 [ATQ, trans-2-[4-(4-chlorophenyl)cyclohexyl]-3-hydroxy-1,4-naphthalenedione]",Solubility in water,practically insoluble in water
